The text below walks through data of patent publication US6500610B1, “Methods for identifying compounds for inhibiting of neoplastic lesions, and pharmaceutical compositions containing such compounds” (Cell Pathways, INC, priority 1997, dated 2002).

Series [1] deals with cGMP PDE from human colon HT-29 cultured tumor cells. Kind of series: cGMP PDE inhibition assay. Format: biochemical.
The next series has as its system HT-29 cells. Kind of series: Growth inhibition, SRB assay, HT-29. Type of series: cell-based, human.
In series [2] the test system is SW-480 colon adenocarcinoma cells.
Series [3] concerns the target T1, cyclooxygenase (Type 1), COX-I (Ovis aries, UniProt P05979).
T1 sequence (P05979 25-600): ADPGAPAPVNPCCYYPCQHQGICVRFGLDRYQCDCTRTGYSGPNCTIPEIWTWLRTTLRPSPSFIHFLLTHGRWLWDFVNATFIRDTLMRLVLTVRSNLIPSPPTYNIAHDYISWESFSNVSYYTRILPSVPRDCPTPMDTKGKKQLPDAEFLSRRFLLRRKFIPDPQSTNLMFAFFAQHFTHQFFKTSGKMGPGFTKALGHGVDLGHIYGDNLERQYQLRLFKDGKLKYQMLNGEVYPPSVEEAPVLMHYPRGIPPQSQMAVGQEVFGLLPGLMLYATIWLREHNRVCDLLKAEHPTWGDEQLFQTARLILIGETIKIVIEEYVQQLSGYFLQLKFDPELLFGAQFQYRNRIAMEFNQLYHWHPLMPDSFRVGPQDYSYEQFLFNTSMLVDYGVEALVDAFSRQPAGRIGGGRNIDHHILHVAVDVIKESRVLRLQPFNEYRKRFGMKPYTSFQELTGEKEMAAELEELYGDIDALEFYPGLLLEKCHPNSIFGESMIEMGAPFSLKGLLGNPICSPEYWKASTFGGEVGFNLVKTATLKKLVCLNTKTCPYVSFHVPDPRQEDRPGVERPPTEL
Kind of series: COX inhibition assay, purified cyclooxygenase. The following applies: 100 μM.

Another series concerns Colo 205 (Colon). Kind of series: Neutral red cytotoxicity assay, Colo 205. Format: cell-based, human. The note with it: free base, five days. On the procedure: (§1) Compound I's activity is not confined to activity against colon cancer cell lines or animal models of colon cancer. It has a broad range of anti-neoplastic effects in various neoplastic cell lines. Various types of human cancer cell lines were propagated under sterile conditions in RPMI 1640 medium with 10% fetal bovine serum, 2 mM L-glutamine and sodium bicarbonate. To determine growth inhibitory effects of Compound I, cells were seeded in 96-well plates at a density of 1000 cells per well. Twenty-four hours after plating, the cells were dosed with various concentrations of the free base of Compound I solubilized in DMSO (final concentration 0.1%). The effect of the drug on tumor cell growth was determined using the neutral red cytotoxicity assay following five days of continuous treatment. Neutral red is a dye that is selectively taken up by viable cells by an ATP-dependent transport mechanism.

A further series deals with SW-620 (Colon). Kind of series: Neutral red cytotoxicity assay, SW-620. Type of series: cell-based, human. The following applies: free base, five days. Here is the method: as §1
The test system of the next series is NCI-H460 (Lung). Kind of series: Neutral red cytotoxicity assay, NCI-H460. Type of series: cell-based, human. The note with it: free base, five days. Here is the method: as §1
The subject of a further series is dogs. The following applies: dog, in vivo.
The test system of series [4] is rats. Kind of series: 28-day study in rats. Format: in vivo, rat.
In series [5] the test system is PrEC primary prostate epithelial cells from normal prostate. Kind of series: Histone-associated DNA fragmentation in PrEC. Format: cell-based. The following applies: 50 μM, up to 4 days. On the procedure:
(§2) The androgen-sensitive prostate tumor cell line, LNCaP (from ATCC (Rockville, Md.)) was propogated under standard conditions using […] medium containing 5% fetal calve serum and 2 mM glutamine. Primary prostate epithelial cell cultures (PrEC) derived from normal prostate (from Clonetics Inc. (San Diego, Calif.)) were grown under the same conditions as the tumor cell line except a serum-free medium optimized for the growth of such cultures was used (Clonetics Inc). For the experiments, LNCaP or PrEC cells were seeded in 96 well plates at a density of 10,000 cells per well. After 24 hours, the cells were treated with either vehicle (0.1% DMSO) or 50 μM Compound I (free base) solubilized in DMSO. After various drug treatment times (4, 24, 48, 72, or 99 hours) the cells were lysed and processed for measurement of histone-associated DNA as an indicator of apoptotic cell death (see, Piazza et al., Cancer Research 57: 2452-2459, 1997).

The nature of series [6]: Acute and seven-dose toxicity in dogs. The following applies: both, dog, in vivo, po, 1000 mg/kg.
A further series deals with NCI-H23 (Lung). Kind of series: Neutral red cytotoxicity assay, NCI-H23. Type of series: cell-based, human. The following applies: free base, five days. Here is the method: as §1
Series [7] concerns azoxymethane-induced aberrant crypt foci in male Fisher 344 rats. Kind of series: Azoxymethane-induced aberrant crypt foci (ACF) model. Type of series: in vivo. The following applies: in the rat chow. Here is the method: The growth inhibition IC50 value obtained for Compound I was 0.7 μM in the SW-480 cell line. […] This established rodent model of azoxymethane (“AOM”)-induced carcinogenesis was used to assess the effects of Compound I (free base and salt) on colon cancer development in vivo. ACF are precursors to colonic tumors, and ACF inhibition is predictive of chemo-preventive efficacy.
In the rats in this experiment, ACF initiation was achieved by two consecutive weekly injections of the carcinogen. Compound I was administered one week prior to ACF initiation and for the duration of the experiment. ACFs were scored after 5 weeks of treatment. Compound I was administered orally to male Fisher 344 rats in the rat chow. Daily food consumption (mg/kg body weight) varied over the course of the study, and therefore Compound I dose was expressed a grams per kg of diet to provide a basis of comparison between doses. […] The experimental groups gained less weight than the controls, which was indicative of bioavailability. However, the weight differences were less than 10% and not considered to affect ACF formation.
The free base of Compound I inhibited ACF formation as measured by a reduction of crypts per colon. […]

The next series has as its system UISO-BCA-1 (Breast). Kind of series: Neutral red cytotoxicity assay, UISO-BCA-1. Type of series: cell-based, human. The note with it: free base, five days. Here is the method:
as §1

The next series relates to NCI-H82 (Lung). Kind of series: Neutral red cytotoxicity assay, NCI-H82. Format: cell-based, human. The following applies: free base, five days. Here is the method:
as §1

Series [8] relates to LNCaP prostate tumor cell line. Kind of series: Histone-associated DNA fragmentation in LNCaP. Type of series: cell-based. The following applies: 50 μM free base, up to 4 days. Here is the method:
as §2

The nature of series [9]: Acute toxicity study in rats. The following applies: rat, in vivo.
The test system of series [10] is rats. The following applies: rat, in vivo.
Another series has as its system patients. Kind of series: Single, escalating dose human clinical safety study. Type of series: in vivo. The following applies: oral.
A further series concerns DU145 (Prostate). Kind of series: Neutral red cytotoxicity assay, DU145. Type of series: cell-based, human. The following applies: free base, five days. Here is the method:
as §1

A further series deals with HT-29 (Colon). Kind of series: Neutral red cytotoxicity assay, HT-29. Format: cell-based, human. The note with it: free base, five days. On the procedure: as §1
For the next series, the system named is HCT-15 (Colon). Kind of series: Neutral red cytotoxicity assay, HCT-15. The note with it: free base, five days. Type of series: cell-based, human. Here is the method:
as §1

In series [11] the test system is rats. Kind of series: Seven-day dose-range finding study in rats. Type of series: in vivo, rat. The note with it: seven days.
The subject of another series is MDA-MB-435 (Breast). Kind of series: Neutral red cytotoxicity assay, MDA-MB-435. Type of series: cell-based, human. The following applies: free base, five days. On the procedure:
as §1

Where a name gives a salt, the structure may show the parent alone. Read-outs that look alike come from different tables or passages of the source.

With `CCN(CC)CCSC12CC(=O)OC1(C)/C(=C/c1ccc(S(C)(=O)=O)cc1)c1ccc(F)cc12` (racemic) [A, rac-threo-(E)-1-(N,N′-diethylaminoethanethio)-1-(butan-1′,4′-olido)-[3′,4′:1,2]-6-fluoro-2-methyl-3-(p-methylsulfonylbenzylidene)-indan], the “cGMP PDE % Inhibition at 10 μM” value in series [1] is less than 25%. Further, the “Growth % Inhibition at 100 μM” value in the series with HT-29 cells was found to be 68%. For the same molecule, the “Fold induction at 100 μM (apoptosis)” value in series [2] is given as less than 2.0 fold. Also, the “COX % Inhibition at 100 μM” value in [3] is recorded as less than 25%.
As for `CC1=C(CC(=O)NCc2ccccc2)c2cc(F)ccc2/C1=C\c1ccncc1` [Compound I, (Z)-5-fluoro-2-methyl-(4-pyridylidene)-3-(N-benzyl)indenylacetamide hydrochloride], the GI90 with Colo 205 (Colon) turned out to be 2400 nM; in the series with SW-620 (Colon), 2500 nM; with NCI-H460 (Lung), 30000 nM; in the series with NCI-H23 (Lung) it was 2500 nM; in the series on UISO-BCA-1 (Breast), 4700 nM; in the series on NCI-H82 (Lung), 5800 nM. Moreover, the GI90 with DU145 (Prostate) amounted to 2800 nM; in the series with HT-29 (Colon), 8000 nM; in the series on HCT-15 (Colon), 3000 nM; in the series with MDA-MB-435 (Breast) it was 2300 nM. Further, the values for the signs of toxicity entry with dogs (1000 mg/kg) and with rats [11] (50 mg/kg/day) were “no signs of toxicity” and “no observable signs of toxicity”, respectively. The drug-related effects result in the series with dogs (1000 mg/kg/day) was “At no time in either dosing phase were any obvious signs of drug-related effects observed”. In the series with rats [4] (28 days, 2000 mg/kg/day), the organ weights result was “statistically significant increase in liver weights”. Further, in the series with rats [4] (28 days, 50, 500 and 2000 mg/kg/day), the clinical observations entry is listed as “no abnormal clinical observations”. In [5], the DNA fragmentation entry is “did not affect DNA fragmentation”. Moreover, the LD50 was greater than 1000 mg/kg in series [6]; greater than 1000 mg/kg in series [9] (ip, 1000 mg/kg); greater than 4000 mg/kg in series [9] (po). In addition, the “body weight difference to controls” value in series [7] was “less than 10%”. For the same molecule, the “histone-associated fragmented DNA” value in series [8] was “time-dependent increase”. Further, the body weight gain entry in the series on rats [10] (ip, 1000 mg/kg) is listed as “reduced body weight gain”; in the series with rats [10] (po, 4000 mg/kg) it was “body weight gains were slightly reduced”. In addition, in the series with patients, the side effects result is given as “no significant side effects at any dose”. Also, the treatment-related effects entry in the series on rats [11] (500 mg/kg/day) is “increase in absolute and relative liver weights in female rats”; with rats [11] (2000 mg/kg/day) it was “labored breathing and/or abnormal respiratory sounds, decreased weights gains and food consumption in male rats, and increased liver weights in female rats”.
